Measured values as given in US6900200B2, “Tricyclic hydroxy carboxamides and derivatives thereof tocolytic oxytocin receptor antagonists” (Wyeth, priority 2001, dated 2005).
pIC50: −log10 of the molar value.

Legend:
[1] = target: T1, human vasopressin V1a receptor subtype (Homo sapiens, UniProt P37288); assay: Vasopressin binding in CHO cell membranes expressing human vasopressin V1a subtype receptors ([3H]Manning ligand radioligand binding); conditions: for pIC50: value printed in parentheses; for inhibition at 0.1 µM: @ 100 nM
T1 construct: host or cells: CHO cells; pZeoSV vector for the Thibonnier line
T1 sequence (P37288 whole entry): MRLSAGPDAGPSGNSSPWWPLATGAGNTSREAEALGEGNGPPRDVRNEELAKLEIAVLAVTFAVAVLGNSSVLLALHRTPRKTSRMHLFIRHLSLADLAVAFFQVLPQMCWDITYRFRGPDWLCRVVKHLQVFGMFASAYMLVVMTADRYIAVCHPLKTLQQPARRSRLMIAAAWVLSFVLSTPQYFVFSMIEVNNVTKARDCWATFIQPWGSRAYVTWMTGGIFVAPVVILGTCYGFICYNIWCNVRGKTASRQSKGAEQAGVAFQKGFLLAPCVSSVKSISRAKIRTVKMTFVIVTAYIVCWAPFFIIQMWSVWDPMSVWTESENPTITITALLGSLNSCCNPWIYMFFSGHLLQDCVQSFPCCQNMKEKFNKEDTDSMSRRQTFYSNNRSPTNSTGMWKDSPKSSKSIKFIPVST
Text: Vasopressin Binding in Chinese Hamster Ovary Cell Membranes Expressing Human Vasopressin V1a Subtype Receptors
Chinese hamster ovary cells (CHO cells) stably transfected with the human vasopressin V1a subtype receptors were either obtained from BioSignal Inc., 1744 rue Williams, Montreal, Quebec, Canada or obtained from M. Thibonnier, Case Western Reserve University School of Medicine, Cleveland, Ohio.
A. Passaging and Amplification of Cells
CHO cells transfected with the human vasopressin V1a subtype receptors obtained from M. Thibonnier (pZeoSV vector) are allowed to grow to confluency (approx. >90%) in T-150 flasks under sterile conditions, in a cell culture medium of F-12 Nutrient Mixture (HAM) with L-glutamine (Gibco Cat. #11765-054) containing 15 mM HEPES (Gibco Cat. #15630-080), 1% antibiotic/antimycotic (add 5 mL 100×, Gibco Cat. #15240-062 per 500 mL F-12), 250 μg/mL Zeocin (add 1.25 mL of 100 mg/mL Invitrogen R-250-01 per 500 mL F-12) and 10% Fetal Bovine Serum (Qualified, heat inactivated, Gibco Cat. #16140-063). The medium is removed by aspiration and the cells are washed with 10 mL of Hank's Balanced Salt solution (Gibco Cat. #14175-095). The salt solution is removed by aspiration and the cells are trypsinized with 5 mL of trypsin-EDTA (0.05% trypsin, 0.53 mM EDTA-4Na, Gibco Cat. #25300-070) for 1 min. The trypsin is removed by aspiration and the cells dislodged by tapping. Cell Culture medium (e.g. 30 mL for 1:30 split) is immediately added and mixed well to inactivate trypsin. 1 mL of detached cells is added to new culture flasks containing fresh cell culture medium (e.g., into 25 mL per T-150 flask), and mixed gently. The cells are incubated at 37° C. in 5% CO2. The medium is changed at 3 to 4 days interval (or as appropriate). The cells grow to confluency (approx. >75%-95%) within 7-8 days. All steps are done under sterile conditions.
The cells are washed twice gently with Hank's Balanced Salt solution (e.g,. use 10 mL per T-150 flask). The excess is removed and the cells are bathed for 15-30 min. in an enzyme-free Cell Dissociation Buffer (e.g. use 8 mL Hank's Based, Gibco Cat. #13150-016 per T-150 flask) until the cells are loosened. The contents are transferred to centrifuge tubes (50 mL) kept in an ice bath. All subsequent steps are done at 4° C. The tubes are centrifuged at 300×g for 15 min (1380 rpm on SORVAL, Model RT6000D, using the rotor for 50 mL tubes). The supernatant is discarded and the cells suspended in homogenizing buffer(10 mM Tris-HCl containing 0.25 M sucrose and 1 mM EDTA, pH 7.4) ensuring that the volume of the buffer is about ten times the volume of the cell pellet. The cells are pooled into a centrifuge tube (50 mL) and homogenized with Polytron at setting 6 for 10 sec. The homogenate is transferred into a Potter-Elvjehm homogenizer and homogenized with 3 strokes. The homogenate is centrifuged at 1500×g for 10 min at 4° C. (3100 rpm using SORVAL, model RT6000D, using the rotor for 50 mL tubes). The pellet is discarded. The supernatant is centrifuged at 100,000×g for 60 min. at 4° C. (Beckman L8-80M ultracentrifuge; spin at 37,500 rpm with rotor type 70 Ti for 50 mL tubes; 38,000 rpm with type 80Ti for 15 mL tubes; or 35,800 rpm with rotor type 45Ti). The supernantant is discarded and the pellet suspended in 3 to 4 mL of Tris buffer (50 mM TRIS—HCl, pH 7.4). The protein content is estimated by the Bradford or Lowry method. The volume of the membrane suspension is adjusted with the membrane buffer (50 mM Tris-HCl containing 0.1% BSA and 0.1 mM PMSF) to give 3.0 mg/mL (or as appropriate) of protein. The membranes are aliquoted and stored at −70° C.
C. Radioligand Binding Assay […]

Compound | pIC50 [1] | melting point [°C] | inhibition at 0.1 µM [1] [%]
Cc1cc(C(=O)N2Cc3ccc(C(=O)N(C)CC(O)CO)n3Cc3ccccc32)ccc1-c1ccccc1C(F)(F)F (stereo not drawn) [Example 2, 10-[(2-Methyl-2′-trifluoromethyl-[1,1′-biphenyl]-4-yl)carbonyl]-10,11-dihydro-5H-pyrrolo[2,1-c][1,4]benzodiazepine-3-carboxylic acid (2,3-dihydroxy-propyl)-methyl-amide] | 6.10 | 169 to 172 | 
COCCN1CCN(C(=O)c2ccc3n2Cc2ccccc2N(C(=O)c2ccc(-c4ccccc4C(F)(F)F)c(C)c2)C3)CC1 [Example 7, Methyl 2-{4-[(10-{[2-methyl-2′-trifluoromethyl-[1,1′-biphenyl]-4-yl]carbonyl}-10,11-dihydro-5H-pyrrolo[2,1-c][1,4]benzodiazepin-3-yl)carbonyl]piperazin-1-yl}ethyl ether] |  | 140 to 144 | -2
COc1cc2c(cc1OC)N(C(=O)c1ccc(-c3ccccc3C(F)(F)F)c(C)c1)Cc1ccc(C(=O)N(C)CC(O)CO)n1C2 (stereo not drawn) [Example 18, N-(2,3-Dihydroxypropyl)-7,8-dimethoxy-N-methyl-10-{[2-methyl-2′-trifluoromethyl-[1,1′-biphenyl]-4-yl]carbonyl}-10,11-dihydro-5H-pyrrolo[2,1-c][1,4]benzodiazepine-3-carboxamide] |  | 184 to 186 | 0
Cc1ccc(-c2ccc(C(=O)N3Cc4ccc(C(=O)N(C)CC(O)CO)n4Cc4ccccc43)cc2)c2ccccc12 (stereo not drawn) [Example 26, 10-{[4-(4-Methyl-naphthalen-1-yl)phenyl]carbonyl}-10,11-dihydro-5H-pyrrolo[2,1-c][1,4]benzodiazepine-3-carboxylic acid (2,3-dihydroxy-propyl)-N-methylamide] | 6.86 |  | 
COc1cc(-c2ccccc2C)c(Cl)cc1C(=O)N1Cc2ccc(C(=O)N3CCN(CCO)CC3)n2Cc2ccccc21 [Example 39, {10-[(6-Chloro-3-methoxy-2′-methyl[1,1′-biphenyl]-4-yl)carbonyl]-10,11-dihydro-5H-pyrrolo[2,1-c][1,4]benzodiazepin-3-yl}[4-(2-hydroxyethyl)-1-piperazinyl]methanone] | 6.12 |  | 
COc1ccccc1-c1ccc(C(=O)N2Cc3ccc(C(=O)N4CCN(CCO)CC4)n3Cc3ccccc32)cc1C [Example 40, [4-(2-Hydroxyethyl)-1-piperazinyl]{10-[(2′-methoxy-2-methyl[1,1′-biphenyl]-4yl)carbonyl]-10,11-dihydro-5H-pyrrolo[2,1-c][1,4]benzodiazepin-3-yl}methanone] |  |  | 13
COc1cc(C(=O)N2Cc3ccc(C(=O)N4CCN(CCO)CC4)n3Cc3ccccc32)ccc1-c1cccc2ccccc12 [Example 41, [4-(2-Hydroxyethyl)-1-piperazinyl]{10-[3-methoxy-4-(1-naphthyl)benzoyl]-10,11-dihydro-5H-pyrrolo[2,1-c][1,4]benzodiazepin-3-yl}methanone] |  |  | 12
COc1cc(C(=O)N2Cc3ccc(C(=O)N4CCN(CCO)CC4)n3Cc3ccccc32)ccc1-c1ccccc1C [Example 42, [4-(2-Hydroxyethyl)-1-piperazinyl]{10-[(2-methoxy-2′-methyl[1,1′-biphenyl]-4yl)carbonyl]-10,11-dihydro-5H-pyrrolo[2,1-c][1,4]benzodiazepin-3-yl}methanone] |  |  | 49
COc1ccccc1-c1ccc(C(=O)N2Cc3ccc(C(=O)N4CCN(CCO)CC4)n3Cc3ccccc32)cc1OC [Example 43, {10-[(2,2′-Dimethoxy[1,1′-biphenyl]-4-yl)carbonyl]-10,11-dihydro-5H-pyrrolo[2,1-c][1,4]benzodiazepin-3-yl}[4-(2-hydroxyethyl)-1-piperazinyl]methanone] |  |  | 1
COc1cccc(-c2ccc(C(=O)N3Cc4ccc(C(=O)N5CCN(CCO)CC5)n4Cc4ccccc43)cc2C)c1 [Example 44, [4-(2-Hydroxyethyl)-1-piperazinyl]{10-[(3′-methoxy-2-methyl[1,1′-biphenyl]-4yl)carbonyl]-10,11-dihydro-5H-pyrrolo[2,1-c][1,4]benzodiazepin-3-yl}methanone] |  |  | 17
Cc1ccccc1-c1ccc(C(=O)N2Cc3ccc(C(=O)N4CCN(CCO)CC4)n3Cc3ccccc32)cc1 [Example 45, [4-(2-Hydroxyethyl)-1-piperazinyl]{10-[(2′-methyl[1,1′-biphenyl]-4-yl)carbonyl]-10,11-dihydro-5H-pyrrolo[2,1-c][1,4]benzodiazepin-3-yl}methanone] |  |  | 57
Cc1ccccc1-c1ccc(C(=O)N2Cc3ccc(C(=O)N4CCN(CCO)CC4)n3Cc3ccccc32)cc1C [Example 46, {10-[(2,2′-Dimethyl[1,1′-biphenyl]-4-yl)carbonyl]-10,11-dihydro-5H-pyrrolo[2,1-c][1,4]benzodiazepin-3-yl}[4-(2-hydroxyethyl)-1-piperazinyl]methanone] |  |  | 53
COc1ccccc1-c1ccc(C(=O)N2Cc3ccc(C(=O)N4CCN(CCO)CC4)n3Cc3ccccc32)cc1 [Example 47, [4-(2-Hydroxyethyl)-1-piperazinyl]{10-[(2′-methoxy[1,1′-biphenyl]-4-yl)carbonyl]-10,11-dihydro-5H-pyrrolo[2,1-c][1,4]benzodiazepin-3-yl}methanone] |  |  | 12
Cc1cc(C(=O)N2Cc3ccc(C(=O)N4CCN(CCO)CC4)n3Cc3ccccc32)ccc1-c1ccccc1C(F)(F)F [Example 48, [4-(2-Hydroxyethyl)-1-piperazinyl](10-{[2-methyl-2′-(trifluoromethyl)[1,1′-biphenyl]-4-yl)carbonyl}-10,11-dihydro-5H-pyrrolo[2,1-c][1,4]benzodiazepin-3-yl)methanone] |  |  | 7
COc1cccc(-c2cc(OC)c(C(=O)N3Cc4ccc(C(=O)N5CCN(CCO)CC5)n4Cc4ccccc43)cc2Cl)c1 [Example 49, {10-[(6-Chloro-3,3′-dimethoxy[1,1′-biphenyl]-4-yl)carbonyl]-10,11-dihydro-5H-pyrrolo[2,1-c][1,4]benzodiazepin-3-yl}[4-(2-hydroxyethyl)-1-piperazinyl]methanone] |  |  | 1
COc1cccc(-c2ccc(C(=O)N3Cc4ccc(C(=O)N5CCN(CCO)CC5)n4Cc4ccccc43)cc2OC)c1 [Example 50, {10-[(2,3′-Dimethoxy[1,1′-biphenyl]-4-yl)carbonyl]-10,11-dihydro-5H-pyrrolo[2,1-c][1,4]benzodiazepin-3-yl}[4-(2-hydroxyethyl)-1-piperazinyl]methanone] |  |  | 52
COc1cc(C(=O)N2Cc3ccc(C(=O)N4CCN(CCO)CC4)n3Cc3ccccc32)ccc1-n1c(C)ccc1C [Example 52, {10-[4-(2,5-Dimethyl-1H-pyrrol-1-yl)-3-methoxybenzoyl]-10,11-dihydro-5H-pyrrolo[2,1-c][1,4]benzodiazepin-3-yl}[4-(2-hydroxyethyl)-1-piperazinyl]methanone] |  |  | 7
{(2S)-1-[(10-{[2-Methoxy-2(trifluoromethyl)[1,1′-biphenyl]-4-yl]carbonyl}-10,11-dihydro-5H-pyrrolo[2,1-c][1,4]benzodiazepin-3-yl)carbonyl]pyrrolidin-2-yl}-methanol [Example 36] | 5.82 |  | 
